The subject of assay [1] is Escherichia coli (E. coli—ATCC #10536). The assay can be described thus: Automated assessment of efficacy in model surfactant base (2.85% sodium cocoyl glycinate + 1.85% sodium lauroamphoacetate, pH 10), 15 seconds exposure, delta OD450/OD590 in D/E quench. The class given is cell-based. As for the experimental part:
Solutions were prepared such that the concentrations of the surfactant components and test actives were 1.1× the final desired concentration in order to allow for dilution with the bacterial inoculum in the test. The solutions were manually adjusted to pH 10.0 by dropwise addition of sodium hydroxide solution, as measured with a pH meter at ambient temperature.
Tests were conducted using standard microtiter plate assays using an automated liquid handling system. 270 μl of the surfactant test solution was pipetted into each well of the microtitre plate and 30 μl of the bacterial suspension was then added. After exactly 15 seconds of bacterial exposure, a 30 μl volume of bacterial cells was withdrawn and transferred to 270 μl of D/E quench solution. After 5 minutes in the D/E quench, the optical density (OD) was measured for each plate in turn at two specific wavelengths (450 nm and 590 nm). These provide a dual check of antimicrobial activity, as the OD450 reading is specific for the yellow colour of D/E quench when bacterial growth is observed, whereas OD590 is specific for the initial purple colour of the D/E quench which is retained if no bacterial growth is observed. After the time zero OD measurements, plates were then incubated at 37° C. overnight (16 hours) before repeating the OD measurements. Delta OD values were calculated by subtracting […]. Bacterial growth is observed as an increase in OD450 and a decrease in ΔOD590. To identify antibacterially efficacious systems (those preventing appreciable bacterial growth after incubation), the following threshold changes in OD readings have been adopted: if (1). OD450 increases by less than 0.2 absorbance unit on incubation and (2). OD590 decreases by less than 0.35 unit on incubation. Conversely, where OD450 increases by more than 0.2 AU and OD590 decreases by more than 0.35 unit after incubation, corresponding to a colour shift from purple to yellow, the test system allows bacterial growth and is not deemed efficacious. Four replicate measurements in the same plate have been made for each test system. The number of replicate wells showing either bacterial growth or no growth is also readily assessed by eye by following the colour change.
Dose responses for individual components and binary mixtures of actives at a fixed concentration ratio were generated by sequential dilution of liquors with further surfactant solution to obtain a series of endpoints.
In some selected cases, the combinations were also tested at the weight ratio 1:1.
The method used was the same as in the above Table.

Assay [2] relates to Staphylococcus aureus (10788 strain). The assay can be described thus: Antimicrobial efficacy of actives against S. aureus in water, 15 seconds contact, NMBS. The class given is cell-based. As for the experimental part:
Selected materials were also tested against a representative Gram positive Staphylococcus aureus.
The following assay describes the testing of 8 materials using 6 dilutions across half of a 96-well micro titre plate (MTP). Using this approach it is possible to assay 16 actives (without replicates) with one full dilution plate, replicating this set up in two halves of the plate columns, 1-6 and 7-12.
Bacterial stock (30 μl) was then added to the prepared 270 μl of the solution of actives in the Screening Plate and mixed, using a multichannel pipette with 8 tips to aspirate and dispense the same volume of bacterial stock in parallel to 8 wells in rows A-H. After a contact time of 15 seconds, the mixtures were quenched by transferring 30 μl volumes of the mixtures into the 270 μl D/E neutralising solution in the prepared dilution plate, using aspiration to mix. After exactly 5 minutes in the D/E neutralising solution, […] were transferred from column 1 to column 2 of the Dilution MTP and mixed, before transferring further 30 μl volumes from column 2 into column 3. This process was repeated serially diluting the bacteria across the plate to column 6.
30 μl volumes from each well in the Dilution MTP were transferred onto pre-labelled segment of Tryptone Soya Agar (TSA) plates starting from the lowest bacterial concentration (highest dilution, column 6) to the highest bacterial concentration (column 1). The TSA plates were allowed to stand for ca. 2 hours so that the 30 μl inocula spots could dry and the plates were then inverted and incubated overnight at 37° C. before enumerating the bacterial colonies at the labelled dilutions to determine the effects of the actives on bacterial growth.
Mean bacterial survival numbers NMBS (expressed in Log CFU/ml) are obtained by first determining the segment of the TSA plate where the number of bacterial colonies is countable. From the colony number in this segment. NMBS is calculated by the formula: NMBS=log {Ncol·10^DF·100/3} Here, Ncol is the colony count, and DF is the dilution factor taken from the MTP-well corresponding to the TSA plate segment (i.e. DF may range from 1 for the quench, to 6 for the highest dilution). The factor 100/3 is a conversion factor from the volume of the inocula spot to one milliliter.
Every assay test was performed in triplicate.
Thus, a value of NMBS as of about 7 corresponds to a count of about […] from the fifth dilution well, i.e. with DF=5. Such a count of about 7 is generally observed when bacteria are exposed to non-biocidal materials. In case no surviving colonies are observed in any segment of the TSA plate, this is interpreted as complete kill and a value of NMBS=0 is reported.
S. aureus Bacterial stock was prepared as shown below and the antibacterial efficacy of the active was carried out as explained earlier for E. Coli.
An overnight culture of Staphylococcus aureus (10788 strain) was inoculated onto a Tripticase Soy Agar (TSA) plate and grown for ca. 18 hrs at 37° C. The culture of S. aureus was washed from the plate using sterile saline (0.85% NaCl) solution and a sterile spreader and suspended in 50 ml saline. This suspension was separated into equal volumes and centrifuged at 4000 rpm for 15 minutes. Following centrifugation the pellet was re-suspended in saline to give a final concentration of 0.35 OD620 equivalent to about 10^8 cells per milliliter for this particular organism. Here. OD620 indicates the absorbance of a sample in a cuvette of 1.0 cm path length at a wavelength of 620 nm. This bacterial stock was used for assaying against antimicrobial actives (in triplicate).

Another assay deals with S. aureus ATCC 6538. The assay can be described thus: Synergy of terpinyl alcohols with phenolic compounds in water, 15 seconds contact, plate count log reduction. Conditions: […] alone. It is filed as cell-based, Staphylococcus aureus. As for the experimental part:
Liquid actives were used directly. Solid actives were dissolved in alcohol and a 50% stock was made.
The culture was grown overnight in Tryptone soya agar. It was suspended in saline (0.85% NaCl) to a con. of 1.5×10^8-5×10^8 cells/ml
To 9 ml water the actives were added to give the desired concentration. 1 ml of the culture was added and mixed. After 15 seconds contact 1 ml aliquot was removed and added to a neutraliser and kept for 5 minutes. A control of untreated cells was similarly processed. It was then diluted and plated. The plates were incubated at 37° C. for 24 hours. The colonies on the plates were counted. The counts were converted to log10. The log. no. of survivors was determined and log reduction calculated.

Consider `C=C(C)C1CCC(C)C(O)C1` (stereo not shown) [2-methyl-5-(prop-1-en-2-yl)cyclohexanol], for which the MBC in assay [1] (Escherichia coli, ATCC10536, 15 s, in 2.85% sodium cocoyl glycinate + 1.85% sodium lauroamphoacetate solution at pH 10, E. coli, read-out: MBC) is 4000 µg/mL; in assay [2] (component alone, against S. aureus, in water), above 1.5 % w/v. Besides, the “No. of replicates showing growth (out of 4)” value in assay [1] (single active at 0.3% w/v) is 4; in assay [1] (single active at 0.5% w/v), 0; in assay [1] (single active at […] w/v) it was 4. Besides, the figures for the “Δ OD 590 nm = OD590 (time = 16 hours) − OD590 (time zero), Mean” value in assay [1] (single active at 0.3% w/v), in assay [1] (single active at 0.5% w/v) and in assay [1] (single active at […] w/v) were 0.66, 0.20 and 0.63, respectively. The figures for the “ΔOD 450 nm = OD450 (time = 16 hours) − OD450 (time zero), Mean” value in assay [1] (single active at 0.3% w/v), in assay [1] (single active at 0.5% w/v) and in assay [1] (single active at […] w/v) were −0.44, 0.23 and −0.50, respectively. The same compound displayed an NMBS in assay [2] (0.5% w/v alone, S. aureus, 15 s) of 7.34 log CFU/ml. In the assay with S. aureus ATCC 6538, the “Log reduction S. aureus ATCC 6538” value was −0.15.
